Where two headings read alike, the source gives them in different places.
Key:
H460 cells [1] = test: cells; settings: Homo sapiens
T29Kt1 cells [2] = test: cells; settings: Homo sapiens, T29Kt1, read-out: IC50 in T29k cells, Table 1
H460 cells [3] = settings: for IC50 in H460 cells: Table 1, value is the negative log10 of mol/L
A549CK8 = test: Cell viability, A549CK8 lung cancer cells; assay type: cell-based, human; settings: for IC50: Homo sapiens, read-out: IC50 (−LogM) (converted)
miapac = test: Cell viability, miapac pancreatic cancer cells; assay type: cell-based, human; settings: for IC50: Homo sapiens, Pancreatic cancer cell, read-out: IC50 (−LogM) (converted)
H322 cells = test: Cell viability, H322 lung cancer cells; assay type: cell-based, human; settings: for IC50: Homo sapiens
Hct116 = test: Cell viability, Hct116 colon cancer cells; assay type: cell-based, human; settings: for IC50: Homo sapiens
CT116P53 = test: Cell viability, CT116P53 colon cancer cells; assay type: cell-based, human; settings: for IC50: Homo sapiens, read-out: IC50 (−LogM) (converted)
Capanc-1 = test: Cell viability, Capanc-1 pancreatic cancer cells; assay type: cell-based, human; settings: for IC50: Homo sapiens, Pancreatic cancer cell
H226B cells = test: Cell viability, H226B lung cancer cells; assay type: cell-based, human; settings: for IC50: Homo sapiens
DLD1 = test: Cell viability, DLD1 colon cancer cells; assay type: cell-based, human; settings: for IC50: Homo sapiens
Heb46 = test: Cell viability, Heb46 kidney cells; assay type: cell-based
HKE3 = test: Cell viability, HKE3 colon cancer cells; assay type: cell-based, human; settings: for IC50: Homo sapiens
AsPC-1 = test: Cell viability, AsPC-1 pancreatic cancer cells; assay type: cell-based, human; settings: for IC50: Homo sapiens
Heb44 = test: Cell viability, Heb44 kidney cells; assay type: cell-based
H1299 cells = test: Cell viability, H1299 lung cancer cells; assay type: cell-based, human; settings: for IC50: Homo sapiens, NCI-H1299, read-out: IC50 (−LogM), h1299, Lung (converted)
A549 cells = test: Cell viability, A549 lung cancer cells; assay type: cell-based, human; settings: for IC50: Homo sapiens, A549, read-out: IC50 (−LogM), A549, Lung (converted)
Sw620 = test: Cell viability, Sw620 colon cancer cells; assay type: cell-based, human; settings: Sw620, Colon
T29Kt1 cells [4] = settings: Table 1, value is the negative log10 of mol/L
T29 cells = settings: Table 1; value is the negative log10 of mol/L
[5] = NCI-H460, read-out: IC50 in H460 cells, Table 1
[6] = NCI-H460, read-out: IC50 (−LogM), H460, Lung (converted)
[7] = HCT-116, read-out: IC50 (−LogM), Hct116, Colon (converted)
[8] = read-out: IC50 (−LogM), capanc1, Pancrease (converted)
[9] = read-out: IC50 (−LogM), H226B, Lung, first H226B line (converted)
[10] = read-out: IC50 (−LogM), H226B, Lung, second H226B line (converted)
[11] = DLD-1, read-out: IC50 (−LogM) (converted)
[12] = read-out: IC50 (−LogM), HKE3, Colon, first HKE3 line (converted)
[13] = read-out: IC50 (−LogM), HKE3, Colon, second HKE3 line (converted)
[14] = ASPC1, read-out: IC50 (−LogM), ASPC1, Pancrease (converted)

Compound: O=Cc1cn(Cc2ccc([N+](=O)[O-])cc2)c2ccccc12 [Oncrasin K70, 1-(4-nitrobenzyl)-1H-indole-3-carbaldehyde]
- IC50 (H460 cells [1]; [5]): 0.501 µM
- IC50 (T29Kt1 cells [2]): 10 µM

Compound: 4H-1,2,4-Triazol-4-amine, N-[[1-[(2,4-dichlorophenyl)methyl]-1H-indol-3-yl]methyle> [Oncrasin K002]
- IC50 in H460 cells (H460 cells [3]): 4.8

Compound: OCc1cn(Cc2cccc(C(F)(F)F)c2)c2ccccc12 [Oncrasin K63, {1-[3-(trifluoromethyl)benzyl]-1H-indol-3-yl}methanol]
- IC50 (A549CK8; A549CK8, Lung): 10 µM
- IC50 (H460 cells [1]; [6]): 0.0398 µM
- IC50 (H460 cells [1]; [5]): 0.0398 µM
- IC50 (miapac; miapac, Pancrease): < 31.6 µM
- IC50 (H322 cells; NCI-H322, H322, Lung, read-out: IC50 (−LogM) (converted)): 31.6 µM
- IC50 (Hct116; HCT-116, Hct116, Colon, read-out: IC50 (−LogM) (converted)): 7.94 µM
- IC50 (CT116P53; CT116P53, Colon): < 31.6 µM
- IC50 (Capanc-1; capanc1, Pancrease, read-out: IC50 (−LogM) (converted)): 31.6 µM
- IC50 (H226B cells; H226B, Lung, first H226B line, read-out: IC50 (−LogM) (converted)): 0.316 µM
- IC50 (H226B cells; H226B, Lung, second H226B line, read-out: IC50 (−LogM) (converted)): 1.58 µM
- IC50 (DLD1; DLD-1, DLD1, Colon, read-out: IC50 (−LogM) (converted)): < 31.6 µM
- IC50 (Heb46): 10 µM
- IC50 (HKE3; HKE3, Colon, first HKE3 line, read-out: IC50 (−LogM) (converted)): 1 µM
- IC50 (HKE3; HKE3, Colon, second HKE3 line, read-out: IC50 (−LogM) (converted)): 1.58 µM
- IC50 (T29Kt1 cells [2]): 0.562 µM
- IC50 (AsPC-1; ASPC1, Pancrease, read-out: IC50 (−LogM) (converted)): 10 µM
- IC50 (Heb44): 0.251 µM

Compound: O=S(=O)(Nc1nccs1)c1ccc(N=Cc2cn(Cc3ccccc3)c3ccccc23)cc1 [Oncrasin K042, Sulfanilamide, N4-[(1-benzylindol-3-yl)methylene]-N1-2-thiazolyl-(8CI)]
- IC50 (−LogM) (A549CK8; A549CK8, Lung): 5.3 −LogM
- IC50 (−LogM) (H1299 cells; h1299, Lung): >4.5 −LogM
- IC50 (−LogM) (miapac; miapac, Pancrease): >4.5 −LogM
- IC50 (−LogM) (H322 cells; H322, Lung): >4.5 −LogM
- IC50 (−LogM) (Hct116; Hct116, Colon): 5 −LogM
- IC50 (−LogM) (A549 cells; A549, Lung): 5 −LogM
- IC50 (−LogM) (CT116P53; CT116P53, Colon): >4.5 −LogM
- IC50 (−LogM) (Capanc-1; capanc1, Pancrease): 5.5 −LogM
- IC50 (−LogM) (H226B cells; H226B, Lung, first H226B line): 5.5 −LogM
- IC50 (−LogM) (H226B cells; H226B, Lung, second H226B line): 5.3 −LogM
- IC50 (−LogM) (DLD1; DLD1, Colon): >4.5 −LogM
- IC50 (−LogM) (Sw620): >4.5 −LogM
- IC50 (−LogM) (Heb46): 5.4 −LogM
- IC50 (−LogM) (H460 cells [3]; H460, Lung): 8 −LogM
- IC50 in H460 cells (H460 cells [3]): 8
- IC50 (−LogM) (HKE3; HKE3, Colon, first HKE3 line): 6 −LogM
- IC50 (−LogM) (HKE3; HKE3, Colon, second HKE3 line): 5 −LogM
- IC50 in T29k cells (T29Kt1 cells [4]): 6
- IC50 (−LogM) (AsPC-1; ASPC1, Pancrease): 5 −LogM
- IC50 (−LogM) (Heb44): 6.7 −LogM

Compound: O=Cc1cn(Cc2ccc(C(F)(F)F)cc2)c2ccccc12 [Oncrasin K64, 1H-Indole-3-carboxaldehyde, 1-[[4-(trifluoromethyl)phenyl]methyl]-(9CI)]
- IC50 in H460 cells (H460 cells [3]): 5.8

Compound: OCc1cn(Cc2ccc(Cl)cc2Cl)c2ccccc12 [Oncrasin K74, 1H-Indole-3-methanol, 1-[(2,4-dichlorophenyl)methyl]-]
- IC50 (H460 cells [1]; [5]): 0.0794 µM
- IC50 (T29Kt1 cells [2]): 1.58 µM

Compound: O=Cc1cn(Cc2ccc(Cl)cc2Cl)c2ccccc12 [Oncrasin K050, 1-(2,4-dichlorobenzyl)-1H-indole-3-carbaldehyde]
- IC50 in H460 cells (H460 cells [3]; listed as K50): 6.3
- IC50 in H460 cells (H460 cells [3]): 7
- IC50 in T29k cells (T29Kt1 cells [4]; listed as K50): 5
- IC50 in T29k cells (T29Kt1 cells [4]): 5.8

Compound: O=Cc1cn(Cc2cccc(C(F)(F)F)c2)c2ccccc12 [Oncrasin K62, 1-[3-(trifluoromethyl)benzyl]-1H-indole-3-carbaldehyde]
- IC50 (A549CK8): 7.94 µM
- IC50 (H1299 cells): 10 µM
- IC50 (H460 cells [1]; [6]): 0.0158 µM
- IC50 (H460 cells [1]; [5]): 0.0138 µM
- IC50 (miapac): < 31.6 µM
- IC50 (H322 cells; NCI-H322, read-out: IC50 (−LogM) (converted)): 10 µM
- IC50 (Hct116; [7]): 12.6 µM
- IC50 (A549 cells): 10 µM
- IC50 (CT116P53): < 31.6 µM
- IC50 (Capanc-1; [8]): 31.6 µM
- IC50 (H226B cells; [9]): 3.16 µM
- IC50 (H226B cells; [10]): 10 µM
- IC50 (DLD1; [11]): < 31.6 µM
- IC50 (Heb46): 10 µM
- IC50 (HKE3; [12]): 3.16 µM
- IC50 (HKE3; [13]): 5.01 µM
- IC50 (T29Kt1 cells [2]): 5.62 µM
- IC50 (AsPC-1; [14]): 15.8 µM
- IC50 (Heb44): 0.1 µM

Compound: CC(=O)c1cn(Cc2cccc(Cl)c2)c2ccccc12 [Oncrasin K058]
- IC50 (T29Kt1 cells [2]): 31.6 µM

Compound: NC(=S)NN=Cc1cn(Cc2ccccc2)c2ccccc12 [Oncrasin K031, Hydrazinecarbothioamide, 2-[[1-(phenylmethyl)-1H-indol-3-yl]methylene]-(9CI)]
- IC50 in T29k cells (T29Kt1 cells [4]): 5

Compound: OCN1CC(Cc2ccc(C(F)(F)F)cc2)c2ccccc21 (stereo not drawn) [Oncrasin K65]
- IC50 (H460 cells [1]; [5]): 1.26 µM
- IC50 (T29Kt1 cells [2]): 1.26 µM

Compound: 7H-Pyrrolo[2,3-d]pyrimidin-4-amine, N-[3-(1H-imidazol-1-yl)propyl]-5,6-diphenyl-7- [Oncrasin K017]
- IC50 in T29k cells (T29Kt1 cells [4]): 5
- IC50 in T29 cells (T29 cells): 4.8

Compound: OCc1cn(Cc2cccc(Cl)c2)c2ccccc12 [Oncrasin K72, 1H-Indole-3-methanol, 1-[(3-chlorophenyl)methyl]-(9CI)]
- IC50 in H460 cells (H460 cells [3]): 5.9
- IC50 in T29k cells (T29Kt1 cells [4]): 5.75

Compound: O=C(CCCCCCC(=O)N/N=C/c1cn(Cc2ccc(Cl)cc2)c2ccccc12)CCCCC1SCC2NC(=O)NC21 (stereo not drawn) [Oncrasin K130]
- IC50 (H460 cells [1]; [5]): 0.398 µM
- IC50 (T29Kt1 cells [2]): 2.51 µM

Compound: CC(=O)Oc1cn(Cc2ccccc2)c2ccccc12 [Oncrasin K047, Indoxyl, 1-benzyl-, acetate (6CI)]
- IC50 in H460 cells (H460 cells [3]): 5

Compound: O=Cc1cn(Cc2ccccc2F)c2ccccc12 [Oncrasin K051, 1-(2-fluorobenzyl)-1H-indole-3-carbaldehyde]
- IC50 (A549CK8): 10 µM
- IC50 (H1299 cells): 7.94 µM
- IC50 (H460 cells [1]; [6]): 0.1 µM
- IC50 (H460 cells [1]; [5]): 0.1 µM
- IC50 (miapac): < 31.6 µM
- IC50 (Hct116; [7]): 10 µM
- IC50 (A549 cells): 12.6 µM
- IC50 (CT116P53): < 31.6 µM
- IC50 (Capanc-1; [8]): 31.6 µM
- IC50 (H226B cells; [9]): 0.794 µM
- IC50 (H226B cells; [10]): 10 µM
- IC50 (DLD1; [11]): < 31.6 µM
- IC50 (Heb46): 10 µM
- IC50 (HKE3; [13]): 10 µM
- IC50 (T29Kt1 cells [2]): 0.316 µM
- IC50 (AsPC-1; [14]): 7.94 µM
- IC50 (Heb44): 0.316 µM

Compound: O=Cc1cn(Cc2ccccc2)c2ccccc12 [Oncrasin K014, 1-Benzylindole-3-carboxaldehyde]
- IC50 (A549CK8): 6.31 µM
- IC50 (H460 cells [1]; [6]): 0.0251 µM
- IC50 (H460 cells [1]; [5]): 0.0251 µM
- IC50 (miapac): < 31.6 µM
- IC50 (Hct116; [7]): 7.94 µM
- IC50 (A549 cells): 31.6 µM
- IC50 (CT116P53): < 31.6 µM
- IC50 (Capanc-1; [8]): 31.6 µM
- IC50 (H226B cells; [9]): 2 µM
- IC50 (H226B cells; [10]): 31.6 µM
- IC50 (DLD1; [11]): < 31.6 µM
- IC50 (Heb46): 3.16 µM
- IC50 (HKE3; [12]): 1 µM
- IC50 (HKE3; [13]): 5.01 µM
- IC50 (T29Kt1 cells [2]): 5.01 µM
- IC50 (AsPC-1; [14]): 7.94 µM
- IC50 (Heb44): 0.501 µM

Source: patent publication US8883841B2, “Oncogenic ras-specific cytotoxic compound and methods of use thereof” (The Board of Regents of the University of Texas System, priority 2005, dated 2014)
